Where two headings read alike, the source gives them in different places. Starred links: 1 amine or outer side, 2 acyl side, 3 side chain; linkers in the order of their positions; H or OH if unused. Non-standard residues stand in square brackets, D forms with d. Residues, ends and D or L forms follow the SMILES beside them. Groups on a side chain read outwards from the residue. *: point of attachment. C18 diacid = O=C(O)CCCCCCCCCCCCCCCCC(=O)*; C16 diacid = O=C(O)CCCCCCCCCCCCCCC(=O)*; γGlu = O=C(O)[C@H](CCC(=O)[*:2])N[*:1]; Glutaryl = O=C(CCCC(=O)[*:2])[*:1]; AEEA = NCCOCCOCC(=O)O; Aib = CC(C)(N)C(=O)O
How the values were obtained:
[1] = biological target: T1, human GIP receptor (Homo sapiens, UniProt P48546); test: cAMP assay Alternative 2 (Gaddum assay), antagonist potency pKb; format: cell-based
T1 construct: host or cells: HEK-293 cells, transient transfection (Lipofectamine 2000), cDNA in pCMV-Script vector
T1 sequence (P48546 22-466): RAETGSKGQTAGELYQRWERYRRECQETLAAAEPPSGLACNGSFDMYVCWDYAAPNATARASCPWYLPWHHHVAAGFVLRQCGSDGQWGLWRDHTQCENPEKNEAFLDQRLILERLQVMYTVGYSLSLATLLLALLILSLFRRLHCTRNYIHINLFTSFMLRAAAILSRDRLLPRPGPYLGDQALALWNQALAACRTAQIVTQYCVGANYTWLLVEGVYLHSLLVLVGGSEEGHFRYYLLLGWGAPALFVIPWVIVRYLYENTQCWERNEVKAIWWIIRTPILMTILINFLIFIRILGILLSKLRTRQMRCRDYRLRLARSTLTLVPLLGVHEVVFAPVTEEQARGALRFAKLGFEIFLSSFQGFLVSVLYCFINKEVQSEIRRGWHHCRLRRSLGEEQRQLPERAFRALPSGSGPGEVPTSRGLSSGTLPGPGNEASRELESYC
Experimental: HEK293 cells were cultured in 10% CO2 and 37° C. in Dulbecco's modified Eagle's medium supplemented with 10% fetal bovine serum, 2 mM glutamine, 180 units/ml penicillin, and 45 µg/ml streptomycin. Transient transfection with hGIPR for the CisBio assay from Table 2C was performed by using Lipofectamine 2000.
Antagonist potency (pKb) was estimated in a functional setting. The estimated pKb values were calculated from the shifts of the agonist-concentration-response curves in the presence of a single dose of GIP peptide antagonists using the Gaddum equation: pKb=log(DR-1)-log(B), where DR (EC50′/EC50) is the dose ratio calculated from EC50 of GIP1-42 obtained in the presence and absence (EC50) of antagonist, and B is the antagonist concentration used.
The in vitro functional assessment of compounds towards human GIP receptor was determined in HEK-293 cells transiently expressing the receptor. On the day of the assay, cells were resuspended in HBSS buffer (Gibco, 14025-50) supplemented with […] (Gibco, 15630-106), 0.1% Pluronic F-68 (Gibco, 24040-032) and 0.1% casein (Sigma, C4765), and plated in 384-well plates at a density of 3500 cells/well. The GIP peptide analogues of the present disclosure were diluted in HBSS buffer supplemented with 20 mM HEPES, 0.1% pluronic, 0.1% casein and 500 uM IBMX. […] Increasing dose of agonist (GIP1-42) was subsequently added to cells and incubated for additionally 30 min at 37° C. The intracellular cAMP was quantitatively determined using the CisBio cAMP Dynamic 2 HTRF Assay Kit. The assay is based on a competition between native cAMP produced by cells and cAMP labeled with the dye d2 for binding to a cryptate labeled antibody. The specific signal (i.e. energy transfer signal) is inversely proportional to the concentration of cAMP in the sample.
The cAMP-d2 conjugate and the antibody anti-cAMP-Cryptate, both diluted in lysis buffer provided in the kit, were added to the cells according to the manufacturer's protocol. The resulting competitive assay was incubated for 60 minutes at room temperature, and the signal was detected by using a PerkinElmer Envision® instrument with excitation at 320 nm and emission at 665 nm and 620 nm. The HTRF ratio (emission at 665 nm/620 nm*10,000) is inversely proportional to the amount of cAMP present and is converted to nM cAMP per well using a cAMP standard curve.

[2] = Physical stability: fibril formation in Thioflavin T (ThT) assay with agitation; format: physicochemical; details: 25° C., agitation
How it was run: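 Peptides at 1, 5, 7.5 or 15 mg/ml in 50 mM sodium phosphate pH 7.4 or in water adjusted to pH 7.4 with NaOH, filtered 0.22 μm, with ThT added. Wells held a 3 mm silica bead under 300 rpm orbital agitation at 25° C. Emission at 486 nm tracked continuously; lag time = 10% of transition above baseline.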

[3] = Solubility by visual inspection of peptide solutions; format: physicochemical
How it was run: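 Peptides dissolved at 1, 5, 7.5 or 15 mg/ml in 50 mM sodium phosphate pH 7.4 or water adjusted to pH 7.4 with NaOH, with gentle mixing. Immediate solubility judged visually as a clear, colorless solution.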

[4] = Table 2C, Gaddum equation, single antagonist dose, HEK-293 hGIPR, read-out: nM (Kb)

| Compound | Kb [1, 4] [nM] | Avr lag time (h) ([2]; 7.5 mg/ml, Na, MilliQ (8)) | Avr lag time (h) ([2]; 15 mg/ml, Na, MilliQ (8)) | Visual appearance ([3]; 7.5 mg/ml, Na, MilliQ (8)) | Visual appearance ([3]; 15 mg/ml, Na, MilliQ (8)) | Avr lag time (h) ([2]; 1 mg/ml, TFA, Phosphate (7.4)) | Visual appearance ([3]; 1 mg/ml, TFA, Phosphate (7.4)) | Kb [1] [nM] |
| --- | --- | --- | --- | --- | --- | --- | --- | --- |
| CC[C@H](C)[C@H](NC(=O)[C@H](CCCCN)NC(=O)[C@H](CCC(=O)O)NC(=O)[C@H](CC(C)C)NC(=O)C(C)(C)NC(=O)[C@@H](NC(=O)[C@H](CO)NC(=O)[C@H](Cc1ccc(O)cc1)NC(=O)[C@H](CCC(=O)O)NC(=O)[C@H](CO)NC(=O)[C@@H](NC(=O)[C@H](Cc1ccccc1)NC(=O)[C@@H](NC(=O)CNC(=O)[C@@H](N)CCC(=O)O)[C@@H](C)O)[C@@H](C)CC)[C@@H](C)CC)C(=O)N[C@@H](CCCCNC(=O)CC[C@H](NC(=O)CCCCCCCCCCCCCCC(=O)O)C(=O)O)C(=O)N[C@@H](CCC(N)=O)C(=O)N[C@@H](CCC(N)=O)C(=O)N[C@@H](CCC(=O)O)C(=O)N[C@@H](Cc1ccccc1)C(=O)N[C@H](C(=O)N[C@@H](CCC(=O)O)C(=O)N[C@@H](Cc1c[nH]c2ccccc12)C(=O)N[C@@H](CC(C)C)C(=O)N[C@@H](CC(C)C)C(=O)N[C@@H](C)C(=O)N[C@@H](CCC(N)=O)C(=O)N[C@@H](CCCCN)C(=O)N1CCC[C@H]1C(=O)N[C@@H](CO)C(=O)N[C@@H](CO)C(=O)NCC(=O)N[C@@H](C)C(=O)N1CCC[C@H]1C(=O)N1CCC[C@H]1C(=O)N1CCC[C@H]1C(=O)N[C@@H](CO)C(=O)O)C(C)C [AT721] (H-EGTFISEYSI[Aib]LEKIK([γGlu-C16 diacid])QQEFVEWLLAQKPSSGAPPPS-OH; N-terminus assumed) | 0.31 | fnd (Fnd = fibrils not detected within experiment time (96 hours) with agitation.) | fnd (Fnd = fibrils not detected within experiment time (96 hours) with agitation.) | Clear | Clear |  |  |  |
| CC[C@H](C)[C@H](NC(=O)[C@H](CCCCN)NC(=O)[C@H](CCC(=O)O)NC(=O)[C@H](CC(C)C)NC(=O)C(C)(C)NC(=O)[C@@H](NC(=O)[C@H](CO)NC(=O)[C@H](Cc1ccc(O)cc1)NC(=O)[C@H](CCC(=O)O)NC(=O)[C@H](CO)NC(=O)[C@@H](NC(=O)[C@H](Cc1ccccc1)NC(=O)[C@@H](NC(=O)CNC(=O)CCCC(=O)O)[C@@H](C)O)[C@@H](C)CC)[C@@H](C)CC)C(=O)N[C@@H](CCCCNC(=O)COCCOCCNC(=O)COCCOCCNC(=O)CC[C@H](NC(=O)CCCCCCCCCCCCCCCCC(=O)O)C(=O)O)C(=O)N[C@@H](CCC(N)=O)C(=O)N[C@@H](CCC(N)=O)C(=O)N[C@@H](CCC(=O)O)C(=O)N[C@@H](Cc1ccccc1)C(=O)N[C@H](C(=O)N[C@@H](CCC(=O)O)C(=O)N[C@@H](Cc1c[nH]c2ccccc12)C(=O)N[C@@H](CC(C)C)C(=O)N[C@@H](CC(C)C)C(=O)N[C@@H](C)C(=O)N[C@@H](CCC(N)=O)C(=O)N[C@@H](CCCCN)C(=O)N1CCC[C@H]1C(=O)N[C@@H](CO)C(=O)N[C@@H](CO)C(=O)NCC(=O)N[C@@H](C)C(=O)N1CCC[C@H]1C(=O)N1CCC[C@H]1C(=O)N1CCC[C@H]1C(=O)N[C@@H](CO)C(N)=O)C(C)C [AT713] (Glutaryl-GTFISEYSI[Aib]LEKIK([AEEA-AEEA-γGlu-C18 diacid])QQEFVEWLLAQKPSSGAPPPS-NH2) | 0.31 | fnd (Fnd = fibrils not detected within experiment time (96 hours) with agitation.) | fnd (Fnd = fibrils not detected within experiment time (96 hours) with agitation.) | Clear | Clear | fnd (Fnd = fibrils not detected within experiment time (96 hours) with agitation.) | Clear |  |
| CC[C@H](C)[C@H](NC(=O)[C@H](CO)NC(=O)[C@H](Cc1ccc(O)cc1)NC(=O)[C@H](CC(=O)O)NC(=O)[C@H](CO)NC(=O)[C@@H](NC(=O)[C@H](Cc1ccccc1)NC(=O)[C@@H](NC(=O)CNC(=O)[C@@H](N)CCC(=O)O)[C@@H](C)O)[C@@H](C)CC)C(=O)N[C@@H](C)C(=O)N[C@@H](CCSC)C(=O)N[C@@H](CC(=O)O)C(=O)N[C@@H](CCCCN)C(=O)N[C@H](C(=O)N[C@@H](Cc1c[nH]cn1)C(=O)N[C@@H](CCC(N)=O)C(=O)N[C@@H](CCC(N)=O)C(=O)N[C@@H](CC(=O)O)C(=O)N[C@@H](Cc1ccccc1)C(=O)N[C@H](C(=O)N[C@@H](CCC(=O)O)C(=O)N[C@@H](Cc1c[nH]c2ccccc12)C(=O)N[C@@H](CC(C)C)C(=O)N[C@@H](CC(C)C)C(=O)N[C@@H](C)C(=O)N[C@@H](CCC(N)=O)C(=O)N[C@@H](CCCCN)C(=O)N1CCC[C@H]1C(=O)N[C@@H](CO)C(=O)N[C@@H](CO)C(=O)N[C@@H](CCCCNC(=O)CCCCCCCCCCCCCCC(=O)O)C(=O)N[C@@H](C)C(=O)N1CCC[C@H]1C(=O)N1CCC[C@H]1C(=O)N1CCC[C@H]1C(=O)N[C@@H](CO)C(=O)O)C(C)C)[C@@H](C)CC [AT743] (H-EGTFISDYSIAMDKIHQQDFVEWLLAQKPSSK(C16 diacid)APPPS-OH; N-terminus assumed) | 19 |  |  |  |  | fnd (Fnd = fibrils not detected within experiment time (96 hours) with agitation.) | Clear |  |
| CC[C@H](C)[C@H](NC(=O)[C@H](CCCCN)NC(=O)[C@H](CC(=O)O)NC(=O)[C@H](CCSC)NC(=O)[C@H](CCCCNC(=O)CCCCCCCCCCCCCCC(=O)O)NC(=O)[C@@H](NC(=O)[C@H](CO)NC(=O)[C@H](Cc1ccc(O)cc1)NC(=O)[C@H](CC(=O)O)NC(=O)[C@H](CO)NC(=O)[C@@H](NC(=O)[C@H](Cc1ccccc1)NC(=O)[C@@H](NC(=O)CNC(=O)[C@@H](N)CCC(=O)O)[C@@H](C)O)[C@@H](C)CC)[C@@H](C)CC)C(=O)N[C@@H](Cc1c[nH]cn1)C(=O)N[C@@H](CCC(N)=O)C(=O)N[C@@H](CCC(N)=O)C(=O)N[C@@H](CC(=O)O)C(=O)N[C@@H](Cc1ccccc1)C(=O)N[C@H](C(=O)N[C@@H](CCC(=O)O)C(=O)N[C@@H](Cc1c[nH]c2ccccc12)C(=O)N[C@@H](CC(C)C)C(=O)N[C@@H](CC(C)C)C(=O)N[C@@H](C)C(=O)N[C@@H](CCC(N)=O)C(=O)N[C@@H](CCCCN)C(=O)N1CCC[C@H]1C(=O)N[C@@H](CO)C(=O)N[C@@H](CO)C(=O)NCC(=O)N[C@@H](C)C(=O)N1CCC[C@H]1C(=O)N1CCC[C@H]1C(=O)N1CCC[C@H]1C(=O)N[C@@H](CO)C(=O)O)C(C)C [AT740] (H-EGTFISDYSIK(C16 diacid)MDKIHQQDFVEWLLAQKPSSGAPPPS-OH; N-terminus assumed) |  |  |  |  |  | fnd (Fnd = fibrils not detected within experiment time (96 hours) with agitation.) | Clear | 14 |

— patent US20230416330A1, “Optimized GIP Peptide Analogues” (Antag Therapeutics ApS, priority 2019, published 2023)
